Target: TYK2 (Homo sapiens, UniProt P29597)
Assay: TYK2 protein degradation in MOLT-4 cells by immunoblotting
Format: cell-based
Set-up: endogenous in cells; host or cells: MOLT-4
Conditions: MOLT-4 cells, 24 hours
Method in brief: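 MOLT-4 cells were exposed to compounds at 0.5 and 5 μM for 24 h, then lysed in RIPA buffer with protease and phosphatase inhibitors. TYK2 was detected by SDS-PAGE immunoblot with chemiluminescence, and band densitometry gave percent degradation.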

Chain of TYK2 (P29597 whole entry): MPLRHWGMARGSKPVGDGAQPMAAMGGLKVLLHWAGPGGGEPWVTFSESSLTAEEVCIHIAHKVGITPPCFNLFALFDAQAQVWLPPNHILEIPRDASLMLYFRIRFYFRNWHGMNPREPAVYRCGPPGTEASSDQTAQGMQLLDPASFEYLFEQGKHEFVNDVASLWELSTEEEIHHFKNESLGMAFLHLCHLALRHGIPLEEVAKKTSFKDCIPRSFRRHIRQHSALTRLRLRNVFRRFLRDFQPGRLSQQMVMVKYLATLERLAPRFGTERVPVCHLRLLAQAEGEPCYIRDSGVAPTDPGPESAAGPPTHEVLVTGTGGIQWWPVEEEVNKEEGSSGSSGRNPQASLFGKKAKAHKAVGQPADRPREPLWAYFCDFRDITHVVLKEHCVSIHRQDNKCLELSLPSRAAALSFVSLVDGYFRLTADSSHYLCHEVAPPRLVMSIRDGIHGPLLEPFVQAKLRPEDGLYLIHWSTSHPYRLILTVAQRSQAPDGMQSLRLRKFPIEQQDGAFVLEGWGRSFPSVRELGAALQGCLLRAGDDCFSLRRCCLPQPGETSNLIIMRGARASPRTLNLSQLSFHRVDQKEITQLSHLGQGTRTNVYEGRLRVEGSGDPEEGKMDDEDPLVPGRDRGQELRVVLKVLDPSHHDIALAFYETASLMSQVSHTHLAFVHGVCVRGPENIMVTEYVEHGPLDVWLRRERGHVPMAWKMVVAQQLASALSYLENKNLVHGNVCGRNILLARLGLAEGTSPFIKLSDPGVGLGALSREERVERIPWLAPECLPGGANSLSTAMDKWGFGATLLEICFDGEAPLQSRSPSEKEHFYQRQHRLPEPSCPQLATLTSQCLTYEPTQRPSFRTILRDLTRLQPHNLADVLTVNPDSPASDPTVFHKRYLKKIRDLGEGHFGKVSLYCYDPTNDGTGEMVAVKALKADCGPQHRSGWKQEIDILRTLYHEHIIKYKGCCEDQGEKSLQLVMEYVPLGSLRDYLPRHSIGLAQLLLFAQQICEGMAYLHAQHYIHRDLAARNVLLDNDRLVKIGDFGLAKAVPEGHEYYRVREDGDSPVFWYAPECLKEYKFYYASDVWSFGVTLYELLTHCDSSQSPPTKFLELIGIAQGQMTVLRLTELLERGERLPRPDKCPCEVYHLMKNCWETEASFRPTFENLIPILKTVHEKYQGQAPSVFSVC

Row | Structure (SMILES) | TYK2 Degradation (0.5 μM) | TYK2 Degradation (5 μM) | TYK2 Degradation (MOLT-4, 0.5 μM) | TYK2 Degradation (MOLT-4, 5 μM)
1 | CNC(=O)c1nnc(NC(=O)CNC(=O)CCOCCOCCOCCOCCC(=O)N[C@H](C(=O)N2C[C@H](O)C[C@H]2C(=O)NCc2ccc(-c3scnc3C)cc2)C(C)(C)C)cc1Nc1cccc(-c2ncn(C)n2)c1OC [CPD-031, N^1—((S)-1-((2S,4R)-4-Hydroxy-2-((4-(4-methylthiazol-5-yl)benzyl)carbamoyl)pyrrolidin-1-yl)-3,3-dimethyl-1-oxobutan-2-yl)-N^16-(2-((5-((2-methoxy-3-(1-methyl-1H-1,2,4-triazol-3-yl)phenyl)amino)-6-(methylcarbamoyl)pyridazin-3-yl)amino)-2-oxoethyl)-4,7,10,13-tetraoxahexadecanediamide] | ≤20% | ≤20% |  | 
2 | CNC(=O)c1nnc(NC(=O)C2CC2)cc1Nc1cccc(-c2ncn(CCNC(=O)CCCCCCCCC(=O)N[C@H](C(=O)N3C[C@H](O)C[C@H]3C(=O)NCc3ccc(-c4scnc4C)cc3)C(C)(C)C)n2)c1OC [CPD-081, N^1-(2-(3-(3-((6-(Cyclopropanecarboxamido)-3-(methylcarbamoyl)pyridazin-4-yl)amino)-2-methoxyphenyl)-1H-1,2,4-triazol-1-yl)ethyl)-N^10-((S)-1-((2S,4R)-4-hydroxy-2-((4-(4-methylthiazol-5-yl)benzyl)carbamoyl)pyrrolidin-1-yl)-3,3-dimethyl-1-oxobutan-2-yl)decanediamide] |  |  | C (C: ≤20% TYK2 degradation) | C (C: ≤20% TYK2 degradation)
3 | CNC(=O)c1nnc(NC(=O)C2CC2)cc1Nc1cccc(-c2ncn(CCNC(=O)COCCOCCOCC(=O)N[C@H](C(=O)N3C[C@H](O)C[C@H]3C(=O)NCc3ccc(-c4scnc4C)cc3)C(C)(C)C)n2)c1OC [CPD-070, 6-(Cyclopropanecarboxamido)-4-((3-(1-((S)-16-((2S,4R)-4-hydroxy-2-((4-(4-methylthiazol-5-yl)benzyl)carbamoyl)pyrrolidine-1-carbonyl)-17,17-dimethyl-4,14-dioxo-6,9,12-trioxa-3,15-diazaoctadecyl)-1H-1,2,4-triazol-3-yl)-2-methoxyphenyl)amino)-N-methylpyridazine-3-carboxamide] | ≤20% | ≤20% |  | 
4 | CNC(=O)c1nnc(NC(=O)C2CC2)cc1Nc1cccc(-c2ncn(CCNC(=O)COCC(=O)N[C@H](C(=O)N3C[C@H](O)C[C@H]3C(=O)NCc3ccc(-c4scnc4C)cc3)C(C)(C)C)n2)c1OC [CPD-066, 6-(Cyclopropanecarboxamido)-4-((3-(1-(2-(2-(2-(((S)-1-((2S,4R)-4-hydroxy-2-((4-(4-methylthiazol-5-yl)benzyl)carbamoyl)pyrrolidin-1-yl)-3,3-dimethyl-1-oxobutan-2-yl)amino)-2-oxoethoxy)acetamido)ethyl)-1H-1,2,4-triazol-3-yl)-2-methoxyphenyl)amino)-N-methylpyridazine-3-carboxamide] | ≤20% | ≤20% |  | 
5 | CNC(=O)c1nnc(NC(=O)C2CC2)cc1Nc1cccc(-c2ncn(CCNC(=O)CCCC(=O)N[C@H](C(=O)N3C[C@H](O)C[C@H]3C(=O)NCc3ccc(-c4scnc4C)cc3)C(C)(C)C)n2)c1OC [CPD-076, N^1-(2-(3-(3-((6-(Cyclopropanecarboxamido)-3-(methylcarbamoyl)pyridazin-4-yl)amino)-2-methoxyphenyl)-1H-1,2,4-triazol-1-yl)ethyl)-N^5-((S)-1-((2S,4R)-4-hydroxy-2-((4-(4-methylthiazol-5-yl)benzyl)carbamoyl)pyrrolidin-1-yl)-3,3-dimethyl-1-oxobutan-2-yl)glutaramide] | ≤20% | ≤20% |  | 
6 | CNC(=O)c1nnc(Nc2ccc(N3CCN(C(=O)CCC(=O)N[C@H](C(=O)N4C[C@H](O)C[C@H]4C(=O)NCc4ccc(-c5scnc5C)cc4)C(C)(C)C)CC3)cn2)cc1Nc1cccc(-c2ncn(C)n2)c1OC [CPD-096, 6-((5-(4-(4-(((S)-1-((2S,4R)-4-Hydroxy-2-((4-(4-methylthiazol-5-yl)benzyl)carbamoyl)pyrrolidin-1-yl)-3,3-dimethyl-1-oxobutan-2-yl)amino)-4-oxobutanoyl)piperazin-1-yl)pyridin-2-yl)amino)-4-((2-methoxy-3-(1-methyl-1H-1,2,4-triazol-3-yl)phenyl)amino)-N-methylpyridazine-3-carboxamide] |  |  | B (B: <60% TYK2 degradation, and >20% TYK2 degradation) | C (C: ≤20% TYK2 degradation)
7 | CNC(=O)c1nnc(NC(=O)CNC(=O)CCCCCC(=O)N[C@H](C(=O)N2C[C@H](O)C[C@H]2C(=O)NCc2ccc(-c3scnc3C)cc2)C(C)(C)C)cc1Nc1cccc(-c2ncn(C)n2)c1OC [CPD-037, N^1—((S)-1-((2S,4R)-4-Hydroxy-2-((4-(4-methylthiazol-5-yl)benzyl)carbamoyl)pyrrolidin-1-yl)-3,3-dimethyl-1-oxobutan-2-yl)-N^7-(2-((5-((2-methoxy-3-(1-methyl-1H-1,2,4-triazol-3-yl)phenyl)amino)-6-(methylcarbamoyl)pyridazin-3-yl)amino)-2-oxoethyl)heptanediamide] | ≤20% | 30% |  | 
8 | CNC(=O)c1nnc(NC(=O)CNC(=O)CCCCCCCCNC(=O)C[C@H](NC(=O)[C@@H]2C[C@@H](O)CN2C(=O)[C@@H](NC(=O)C2(F)CC2)C(C)(C)C)c2ccc(-c3scnc3C)cc2)cc1Nc1cccc(-c2ncn(C)n2)c1OC [CPD-093, 6-(2-(9-((S)-3-((2S,4R)-1-((S)-2-(1-Fluorocyclopropane-1-carboxamido)-3,3-dimethylbutanoyl)-4-hydroxypyrrolidine-2-carboxamido)-3-(4-(4-methylthiazol-5-yl)phenyl)propanamido)nonanamido)acetamido)-4-((2-methoxy-3-(1-methyl-1H-1,2,4-triazol-3-yl)phenyl)amino)-N-methylpyridazine-3-carboxamide] |  |  | C (C: ≤20% TYK2 degradation) | C (C: ≤20% TYK2 degradation)
9 | CNC(=O)c1nnc(NC(=O)CNC(=O)CCCNc2ccc3c(c2)C(=O)N(C2CCC(=O)NC2=O)C3=O)cc1Nc1cccc(-c2ncn(C)n2)c1OC (centres unmarked) [CPD-056, 6-(2-(4-((2-(2,6-Dioxopiperidin-3-yl)-1,3-dioxoisoindolin-5-yl)amino)butanamido)acetamido)-4-((2-methoxy-3-(1-methyl-1H-1,2,4-triazol-3-yl)phenyl)amino)-N-methylpyridazine-3-carboxamide] | ≤20% | ≤20% |  | 
10 | CNC(=O)c1nnc(NC(=O)CNC(=O)CCCCCNc2ccc3c(c2)C(=O)N(C2CCC(=O)NC2=O)C3=O)cc1Nc1cccc(-c2ncn(C)n2)c1OC (centres unmarked) [CPD-058, 6-(2-(6-((2-(2,6-Dioxopiperidin-3-yl)-1,3-dioxoisoindolin-5-yl)amino)hexanamido)acetamido)-4-((2-methoxy-3-(1-methyl-1H-1,2,4-triazol-3-yl)phenyl)amino)-N-methylpyridazine-3-carboxamide] | ≤20% | ≤20% |  | 
11 | CNC(=O)c1nnc(NC(=O)C2CC2)cc1Nc1cccc(-c2ncn(CCNC(=O)CCCCCCNc3ccc4c(c3)C(=O)N(C3CCC(=O)NC3=O)C4=O)n2)c1OC (centres unmarked) [CPD-017, 6-(Cyclopropanecarboxamido)-4-((3-(1-(2-(7-((2-(2,6-dioxopiperidin-3-yl)-1,3-dioxoisoindolin-5-yl)amino)heptanamido)ethyl)-1H-1,2,4-triazol-3-yl)-2-methoxyphenyl)amino)-N-methylpyridazine-3-carboxamide] | ≤20% |  |  | 
12 | CNC(=O)c1nnc(NC(=O)CNC(=O)CCNC(=O)C[C@H](NC(=O)[C@@H]2C[C@@H](O)CN2C(=O)[C@@H](NC(=O)C2(F)CC2)C(C)(C)C)c2ccc(-c3scnc3C)cc2)cc1Nc1cccc(-c2ncn(C)n2)c1OC [CPD-087, 6-(2-(3-((S)-3-((2S,4R)-1-((S)-2-(1-Fluorocyclopropane-1-carboxamido)-3,3-dimethylbutanoyl)-4-hydroxypyrrolidine-2-carboxamido)-3-(4-(4-methylthiazol-5-yl)phenyl)propanamido)propanamido)acetamido)-4-((2-methoxy-3-(1-methyl-1H-1,2,4-triazol-3-yl)phenyl)amino)-N-methylpyridazine-3-carboxamide] |  |  | C (C: ≤20% TYK2 degradation) | 
13 | CNC(=O)c1nnc(NC(=O)C2CC2)cc1Nc1cccc(-c2ncn(CCNC(=O)CNc3ccc4c(c3)C(=O)N(C3CCC(=O)NC3=O)C4=O)n2)c1OC (centres unmarked) [CPD-013, 6-(Cyclopropanecarboxamido)-4-((3-(1-(2-(2-((2-(2,6-dioxopiperidin-3-yl)-1,3-dioxoisoindolin-5-yl)amino)acetamido)ethyl)-1H-1,2,4-triazol-3-yl)-2-methoxyphenyl)amino)-N-methylpyridazine-3-carboxamide] | ≤20% |  |  | 
14 | CNC(=O)c1nnc(NC(=O)C2CC2)cc1Nc1cccc(-c2ncn(CCNC(=O)CCCCCCCCCC(=O)N[C@H](C(=O)N3C[C@H](O)C[C@H]3C(=O)NCc3ccc(-c4scnc4C)cc3)C(C)(C)C)n2)c1OC [CPD-082, N^1-(2-(3-(3-((6-(Cyclopropanecarboxamido)-3-(methylcarbamoyl)pyridazin-4-yl)amino)-2-methoxyphenyl)-1H-1,2,4-triazol-1-yl)ethyl)-N^11-((S)-1-((2S,4R)-4-hydroxy-2-((4-(4-methylthiazol-5-yl)benzyl)carbamoyl)pyrrolidin-1-yl)-3,3-dimethyl-1-oxobutan-2-yl)undecanediamide] |  |  | C (C: ≤20% TYK2 degradation) | C (C: ≤20% TYK2 degradation)
15 | CNC(=O)c1nnc(NC(=O)C2CC2)cc1Nc1cccc(-c2ncn(CCNC(=O)CCNc3ccc4c(c3)C(=O)N(C3CCC(=O)NC3=O)C4=O)n2)c1OC (centres unmarked) [CPD-014, 6-(Cyclopropanecarboxamido)-4-((3-(1-(2-(3-((2-(2,6-dioxopiperidin-3-yl)-1,3-dioxoisoindolin-5-yl)amino)propanamido)ethyl)-1H-1,2,4-triazol-3-yl)-2-methoxyphenyl)amino)-N-methylpyridazine-3-carboxamide] | ≤20% |  |  | 

Reference: patent US20240059671A1, “TYROSINE KINASE 2 (TYK2) DEGRADATION COMPOUNDS AND METHODS OF USE” (CULLGEN (SHANGHAI), INC., priority 2020, published 2024)
